Data set [1] has as its system RWPE-2 cells. Briefly: Mitochondrial zinc uptake imaging in prostate cells. The format is cell-based. The following applies: RWPE-2, 50 μM ZnCl2 KSFM, 24 h. How it is done:
(§1) FIG. 25 depicts decreased mitochondrial zinc uptake in cancerous cell lines. RWPE-1, RWPE-2, and PC-3 prostate cell lines were incubated for 24 h in medium supplemented with (+) and without (−) 50 μM ZnCl2. RWPE-1 is the only cell line that has a statistically significant (p<0.001) increase in mitochondrial zinc uptake when incubated in zinc-enriched media.
(§2) With a new mitochondrial-targeting sensor in hand, we used DA-ZP1-TPP to investigate the ability of prostate cell lines to accumulate zinc within their mitochondria. RWPE-1 and RWPE-2 are a pair of genetically similar cell lines that retain normal epithelial cell morphology, express cytokeratin markers for prostate epithelial cells, and are hormone sensitive. […] To explore the ability of RWPE-1 and -2 cells to sequester zinc in mitochondria, we measured the fluorescence intensity of DA-ZP1-TPP in both lines after the cells were bathed in normal or zinc-enriched (50 μM ZnCl2) keratinocyte serum-free medium (KSFM) for 24 h prior to imaging. RWPE-1 cells bathed in zinc-enriched medium have a fluorescence signal intensity that is ˜2.3-fold higher than cells bathed in normal medium (FIG. 25). […] Importantly, in both cell lines the observed fluorescence signals from DA-ZP1-TPP are sensitive to ZnPT and TPEN and have good correlation with MitoTracker Red, the Pearson's r values being 0.68±0.09 and 0.59±0.1 for RWPE-1 and -2, respectively. […]

For data set [2], the system named is PC-3 cells. The data set is described as above. In kind it is cell-based, human. How it is done: as §1, §2
Data set [3] has as its system porcine liver esterase. Briefly: Deacetylation by porcine liver esterase (UV-vis absorbance). In kind it is in vitro ADME. As to conditions: 1.25 units porcine liver esterase, 37° C., pH 7. How it is done:
FIG. 23 depicts kinetic traces for the deacetylation of DA-ZP1-TPP. The half-life for deacetylation of a 2.75 μM solution of DA-ZP1-TPP, at 37° C. in 50 mM PIPES buffer (pH 7) and 100 mM KCl, was measured in the presence of 125 μM ZnCl2 (+Zn), 250 μM EDTA (−Zn), or 1.25 units of porcine liver esterase (Esterase). The change in absorbance at 520 nm (EDTA and esterase) or 510 nm (ZnCl2) was used to monitor the reaction.
DA-ZP1-TPP has a zinc-induced fluorescence response and is relatively stable to uncatalyzed hydrolysis and esterase activity. […] Other late 3d-block transition metal ions, such as Co(II) and Cu(II), can coordinate to DA-ZP1-TPP but are generally not available in appreciable chelatable quantities within the cell. In addition to monitoring selectivity in the fluorescence response, we used UV-vis spectroscopy to investigate the rate and zinc-specificity of metal-mediated ester hydrolysis. DA-ZP1-TPP deacetylation results in opening of the lactone ring and restoration of conjugation across the xanthene ring. By monitoring the absorbance of the xanthene it system, we could interrogate deacetylation kinetics in a manner that is independent of the fluorescence response. […] To determine whether ester hydrolysis depends on the metal-binding core of DA-ZP1-TPP, we measured the deacetylation kinetics of fluorescein diacetate (DA-FL) under analogous conditions. […]

Data set [4] in a line: pH profile of fluorescence. In kind it is physicochemical. The procedure:
FIG. 21 depicts normalized fluorescence signals for DA-ZP1-TPP as a function of increasing pH in the presence of 125 μM ZnCl2 or 250 μM EDTA. Data were acquired 17.5 mM (0.1% v/v) acetic acid in milli-Q H2O beginning at pH 3.5. The pH of the solution was increased by sequential addition of aqueous KOH. The total volume of KOH added was less than 5% of the total volume. λex=475 nm.
FIG. 26 depicts in vitro characterization of DA-ZP1-A3. (a) UV-vis and (b) fluorescence spectra of a 5 μM solution of DA-ZP1-A3 in buffer (50 mM PIPES, 100 mM KCl; pH 7). Spectra were acquired initially, upon addition of 100 μM ZnCl2, and again after addition of 200 μM EDTA. (c) Time-dependent change in the normalized absorbance of a ca. 5 μM solution DA-ZP1-A3 at 37° C. in buffer (50 mM PIPES, 100 mM KCl; pH 7) in the presence of 100 μM ZnCl2 (λabs=510 nm) or EDTA (λabs=520 nm). (d) Integrated fluorescence intensity of a 1 μM solution of ZP1-A3 (circles) or DA-ZP1-A3 (squares) as a function of pH.
Next, we investigated the pH profile of DA-ZP1-TPP. The use of nitrogen atoms to coordinate zinc endows Zinpyr sensors with selectivity for zinc over calcium and magnesium, but also renders them pH sensitive. […] Protonation of these amines leads to increased background fluorescence because protons can diminish PeT in a manner similar to that of zinc ions. […]

From patent publication US9700637B2, “Reaction-based fluorescent probes for detecting zinc” (Massachusetts Institute of Technology, priority 2013, dated 2017) come the findings set out here.

For the compound `CC(=O)Oc1c(Cl)cc2c(c1CN(Cc1ccccn1)Cc1ccccn1)Oc1c(cc(Cl)c(OC(C)=O)c1CN(Cc1ccccn1)Cc1ccccn1)C21OC(=O)c2ccc(C(=O)NCC[P+](c3ccccc3)(c3ccccc3)c3ccccc3)cc21` [DA-ZP1-TPP], in data set [1], the “increase in fluorescence signal, zinc-enriched vs normal medium” value is listed as “no statistically significant increase”. In addition, the “increase in sensor fluorescence intensity, zinc-enriched medium” value in data set [2] (PC-3, 50 μM ZnCl2, RMPI 1640 with 10% FBS, 24 h) is “no statistically significant increase”. Further, the “increase in fluorescence intensity, zinc-supplemented serum-free medium” value in data set [2] (PC-3, serum-free RMPI 1640, 15 μM ZnCl2, 3 h) is recorded as “no statistically significant increase”. Moreover, in data set [3], the t1/2-Esterase of deacetylation is reported as 2.9 h. Further, the “fluorescence turn-on under acidic conditions” value in data set [4] (absence of zinc) is recorded as “no significant fluorescence turn-on under acidic conditions”. In data set [4] (presence of excess zinc ions (125 μM ZnCl2)), the “pH at which a strong zinc-dependent fluorescence response is displayed” value was more than 5.
